Experimental data reported in patent US9301961B2, “Autoimmune and inflammatory disorder therapy” (Katholieke Universiteit Leuven, K.U. Leuven R&D, priority 2011, dated 2016).

Tests used:
PIK3CB = biological target: T1, PIK3CB (Homo sapiens, UniProt P42338); test: Kinase-tagged phage competition binding assay (qPCR), 382-kinase library
T1 construct: made in house; host or cells: E. coli BL21-derived host (T7 phage) or HEK-293

[1] = test system: cardiac allograft rejection; test: Cardiac allograft transplantation model, treatment day -1 to day 30 (Examples 7 and 8); assay type: in vivo, mice (C57BL/6 donor, Balb/c recipient); conditions: Example 7
Protocol: Inbreed C57BL/6 H-2b and Balb/c H-2d female mice, 8-10 weeks old, 20-25 g, were used as donor and recipient, respectively. Heterotopic heart transplantation was performed by implanting the donor heart on the neck of recipients using conventional microsurgery techniques. Graft beating was checked daily by inspection and palpation. Cessation of beating indicated graft rejection, which was confirmed by histological examination. Housing and all experimental animal procedures were approved by the Institutional Animal Care and Research Advisory Committee of the KU Leuven.

T1 sequence (P42338 whole entry): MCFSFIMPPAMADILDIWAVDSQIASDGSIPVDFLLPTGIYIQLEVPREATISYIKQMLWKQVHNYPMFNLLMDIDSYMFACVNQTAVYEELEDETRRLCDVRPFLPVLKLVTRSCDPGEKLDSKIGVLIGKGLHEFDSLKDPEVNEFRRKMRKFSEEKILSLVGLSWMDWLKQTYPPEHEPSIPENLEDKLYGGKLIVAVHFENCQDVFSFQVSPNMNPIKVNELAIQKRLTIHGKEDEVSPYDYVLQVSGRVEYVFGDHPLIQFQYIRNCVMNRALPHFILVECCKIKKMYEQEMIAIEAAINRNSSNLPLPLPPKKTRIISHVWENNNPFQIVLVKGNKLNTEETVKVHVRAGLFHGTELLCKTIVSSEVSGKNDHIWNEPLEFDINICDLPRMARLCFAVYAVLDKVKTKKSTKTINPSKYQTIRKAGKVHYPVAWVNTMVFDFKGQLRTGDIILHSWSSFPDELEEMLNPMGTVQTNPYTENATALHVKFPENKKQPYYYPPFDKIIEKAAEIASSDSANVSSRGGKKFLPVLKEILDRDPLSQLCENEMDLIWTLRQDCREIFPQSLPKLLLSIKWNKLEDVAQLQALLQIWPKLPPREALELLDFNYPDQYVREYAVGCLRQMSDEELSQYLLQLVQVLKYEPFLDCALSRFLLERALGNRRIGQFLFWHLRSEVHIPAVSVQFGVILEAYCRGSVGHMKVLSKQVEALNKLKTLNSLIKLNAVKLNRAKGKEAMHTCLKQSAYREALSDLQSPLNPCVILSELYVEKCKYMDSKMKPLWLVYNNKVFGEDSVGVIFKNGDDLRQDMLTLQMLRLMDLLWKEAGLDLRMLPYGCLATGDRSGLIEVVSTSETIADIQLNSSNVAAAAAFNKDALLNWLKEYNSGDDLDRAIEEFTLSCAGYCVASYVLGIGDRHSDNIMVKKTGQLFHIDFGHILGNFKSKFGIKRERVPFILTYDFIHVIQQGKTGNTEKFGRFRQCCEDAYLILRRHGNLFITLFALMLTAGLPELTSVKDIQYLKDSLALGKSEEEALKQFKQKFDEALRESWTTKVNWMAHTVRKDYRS

## Nc1nc(N2CCN(C(=O)COc3ccc(Cl)cc3)CC2)c2nc(-c3cccnc3)sc2n1 [formula (1), 5-amino-7-[4-(4-chlorophenoxyacetyl)piperazin-1-yl]-2-(pyridin-3-yl)thiazolo[5,4-d]pyrimidine]
PIK3CB; 10 μM compound, read-out: % Inhibition of substrate binding
  inhibition at 10 µM: 56%
PIK3CB; stated for the 8 kinases of Table 1
  IC50: < 10 µM
[1]; 40 mg/kg daily gavage
  grafts surviving as long as treatment continued: 3 out of 4
[1]; 40 mg/kg daily gavage until day 30
  graft function after withdrawal of the treatment: continued beating after withdrawal of the treatment (up to 60 days)
